These results are taken from article PMC11242993, “Evaluation of the Therapeutic Potential of Sulfonyl Urea Derivatives as Soluble Epoxide Hydrolase (sEH) Inhibitors” (Molecules, 2024).

The target of one experiment is T1, mouse recombinant sEH (Mus musculus, UniProt P34914).
T1 sequence (P34914 1-554): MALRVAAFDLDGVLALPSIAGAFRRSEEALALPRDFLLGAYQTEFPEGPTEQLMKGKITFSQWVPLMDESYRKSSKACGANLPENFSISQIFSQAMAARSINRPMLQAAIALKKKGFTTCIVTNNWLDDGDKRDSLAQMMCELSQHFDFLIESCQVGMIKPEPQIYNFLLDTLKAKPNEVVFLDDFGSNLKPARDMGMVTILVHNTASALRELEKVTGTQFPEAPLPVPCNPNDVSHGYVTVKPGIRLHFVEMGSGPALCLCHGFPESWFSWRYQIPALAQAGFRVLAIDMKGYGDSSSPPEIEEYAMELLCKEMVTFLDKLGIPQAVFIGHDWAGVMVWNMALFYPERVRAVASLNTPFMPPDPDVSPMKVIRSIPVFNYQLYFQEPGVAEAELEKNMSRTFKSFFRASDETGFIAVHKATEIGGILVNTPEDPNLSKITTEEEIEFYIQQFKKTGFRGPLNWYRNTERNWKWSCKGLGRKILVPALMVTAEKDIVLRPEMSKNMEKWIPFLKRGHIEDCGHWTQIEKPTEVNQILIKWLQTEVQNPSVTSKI
In words: Fluorescence-based sEH activity assay (PHOME substrate), mouse enzyme. It counts as biochemical. The following applies: dose-dependent assay; read-out: Mouse sEH Inhibition IC50. How it is done: (§1) A fluorescence-based sEH activity assay provided a convenient method for screening human epoxide hydrolase inhibitors. The assay utilized (3-Phenyl-oxiranyl)-acetic acid cyano-(6-methoxy-naphthalen-2-yl)-methyl ester (PHOME) as a substrate. […] The inhibitory function of the compounds on sEH activity was tested as detailed in the product manual from Cayman Chemical. Briefly, 3 mL sEH assay buffer (10×) was diluted with 27 mL HPLC-grade water. This final assay buffer, 25 mM bis-tris (pH 7.0), was used in the assay and for the dilution of the soluble epoxide hydrolase (sEH) enzyme. Amounts of 12 μL each of human and mouse recombinant sEH were thawed on ice. Prior to assaying, 588 μL cold assay buffer was added directly to the enzyme vial. An amount of 190 μL assay buffer and 5 μL solvent (40% DMSO in assay buffer) were added to the background wells. In the 100% initial activity wells, 185 μL assay buffer, 5 μL sEH, and 5 μL solvent were added. In inhibitor wells, 185 μL assay buffer, 5 μL solution of the synthesized compounds, and 5 μL of recombinant enzyme solution were added. To start the reaction, 5 μL of PHOME was added to each well at a final concentration of 0.25 mM. The microwell plate was shaken carefully for 10 s and covered with a plate cover.
(§2) Average fluorescence (AF) of the background wells and 100% initial activity in the wells and of each of the inhibitors were determined. The background AF was subtracted from the 100% initial activity and inhibitor AFs. The % sEH activity is calculated as (inhbitited AF/% 100 initial activity) × 100.
(§3) Multiple concentrations of the inhibitors were tested followed by plotting of the percent activity as a function of inhibitor concentration to determine the IC50 values.
Consider `O=C(NC12CC3CC(CC(C3)C1)C2)NS(=O)(=O)c1ccccc1` [Compound 4a], for which the IC50 is over 1 µM.

For a further experiment, the target named is T2, human recombinant sEH (Homo sapiens, UniProt P34913).
T2 construct: purchased Cayman Chemical 10011671
T2 sequence (P34913 1-555): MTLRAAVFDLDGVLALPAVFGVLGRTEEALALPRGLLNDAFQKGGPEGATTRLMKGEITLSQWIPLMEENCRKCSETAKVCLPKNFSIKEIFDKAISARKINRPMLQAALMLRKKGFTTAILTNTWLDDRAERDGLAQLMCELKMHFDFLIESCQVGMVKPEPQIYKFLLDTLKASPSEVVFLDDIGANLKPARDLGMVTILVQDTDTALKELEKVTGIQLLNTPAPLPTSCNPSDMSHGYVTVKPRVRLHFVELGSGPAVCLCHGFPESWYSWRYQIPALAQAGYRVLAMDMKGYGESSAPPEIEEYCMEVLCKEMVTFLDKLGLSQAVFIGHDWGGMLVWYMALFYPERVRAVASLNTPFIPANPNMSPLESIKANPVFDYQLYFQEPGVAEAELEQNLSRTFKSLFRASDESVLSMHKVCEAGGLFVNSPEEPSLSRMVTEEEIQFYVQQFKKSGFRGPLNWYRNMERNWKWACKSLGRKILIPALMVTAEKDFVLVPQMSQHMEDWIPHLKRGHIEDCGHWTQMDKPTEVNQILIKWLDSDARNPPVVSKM
Nature of the experiment: Fluorescence-based sEH activity assay (PHOME substrate), human enzyme. In kind it is biochemical.
Conditions: not given
How it is done: as §1, with “added.” for “added. To start the reaction, 5 μL of PHOME was added to each well at a final concentration of 0.25 mM. The microwell plate was shaken carefully for 10 s and covered with a plate cover.”
as §2, §3
On to `O=C(NC12CC3CC(CC(C3)C1)C2)NS(=O)(=O)c1ccccc1` [Compound 4a], for which the “Human sEH % Inhibition” value was determined as 93.61%. In the case of `O=C(NC12CC3CC(CC(C3)C1)C2)NS(=O)(=O)c1ccc(C(F)(F)F)cc1` [Compound 4c, N-((adamantan-1-yl)carbamoyl)-4-(trifluoromethyl)benzenesulfonamide], the “Human sEH % Inhibition” value amounted to 34.06%.

In the case of `CC(C)(C)c1ccc(S(=O)(=O)NC(=O)NC23CC4CC(CC(C4)C2)C3)cc1` [Compound 4d], the “Human sEH % Inhibition” value was 32.7%. On to `O=C(NC12CC3CC(CC(C3)C1)C2)NS(=O)(=O)c1cccc(OC(F)(F)F)c1` [Compound 4g, N-((adamantan-1-yl)carbamoyl)-3-(trifluoromethoxy)benzenesulfonamide], for which the “Human sEH % Inhibition” value was found to be 1.65% and the “human sEH inhibitory activity (in words)” value is recorded as “sEH inhibition decreased to a significant extent”. For `O=C(NC12CC3CC(CC(C3)C1)C2)NS(=O)(=O)c1ccccc1OC(F)(F)F` [Compound 4h, N-((adamantan-1-yl)carbamoyl)-2-(trifluoromethoxy)benzenesulfonamide] the same measures were 6.28% and “sEH inhibition decreased to a significant extent”. `N#Cc1ccc(S(=O)(=O)NC(=O)NC23CC4CC(CC(C4)C2)C3)cc1` [Compound 4i, N-((adamantan-1-yl)carbamoyl)-4-cyanobenzenesulfonamide]: the “Human sEH % Inhibition” value amounted to 19.36%. Same read-out and setting: the figure for `CC(C)(C)c1ccc(S(=O)(=O)NC(=S)NC23CC4CC(CC(C4)C2)C3)cc1` [Compound 6b, N-((adamantan-1-yl)carbamothioyl)-4-(tert-butyl)benzenesulfonamide] is 1.80%. The same measure, in the same setting: the figure for `COc1ccc(S(=O)(=O)NC(=S)NC23CC4CC(CC(C4)C2)C3)cc1` [Compound 6c, N-((adamantan-1-yl)carbamothioyl)-4-methoxybenzenesulfonamide] is 2.50%; for `CS/C(=N\S(=O)(=O)c1ccc(OC(F)(F)F)cc1)NC12CC3CC(CC(C3)C1)C2` [Compound 7] it is 32.83%. The same measure, in the same setting: with `N/C(=N\S(=O)(=O)c1ccc(OC(F)(F)F)cc1)NC12CC3CC(CC(C3)C1)C2` [Compound 8a] the figure was 40.19%; with `CN/C(=N\S(=O)(=O)c1ccc(OC(F)(F)F)cc1)NC12CC3CC(CC(C3)C1)C2` [Compound 8b], 13.06%; with `CNN/C(=N\S(=O)(=O)c1ccc(OC(F)(F)F)cc1)NC12CC3CC(CC(C3)C1)C2` [Compound 9b], 9.83%. Regarding `O=S(=O)(/N=C(\NNc1ccccc1)NC12CC3CC(CC(C3)C1)C2)c1ccc(OC(F)(F)F)cc1` [Compound 9c], the “Human sEH % Inhibition” value is listed as 4.71%.

As to `CN(C)N/C(=N\S(=O)(=O)c1ccc(OC(F)(F)F)cc1)NC12CC3CC(CC(C3)C1)C2` [Compound 9d], the “Human sEH % Inhibition” value was 7.65%. With `Cc1ccc(S(=O)(=O)NC(=O)NC23CC4CC(CC(O)(C4)C2)C3)cc1` [Compound 10a, N-((3-hydroxyadamantan-1-yl)carbamoyl)-4-methylbenzenesulfonamide], the “Human sEH % Inhibition” value was 22.47%. Same read-out and setting: the figure for `O=C(NC12CC3CC(CC(O)(C3)C1)C2)NS(=O)(=O)c1ccc(C(F)(F)F)cc1` [Compound 10b, N-((-3-hydroxyadamantan-1-yl)carbamoyl)-4-(trifluoromethyl)benzenesulfonamide] is 21.26%; for `CC(C)(C)c1ccc(S(=O)(=O)NC(=O)NC23CC4CC(CC(O)(C4)C2)C3)cc1` [Compound 10c, 4-(tert-butyl)-N-((-3-hydroxyadamantan-1-yl)carbamoyl)benzenesulfonamide] it is 3.08%; for `O=C(NC12CC(C1)C2)NS(=O)(=O)c1ccc(OC(F)(F)F)cc1` [Compound 11a, N-(bicyclo [1.1.1]pentan-1-ylcarbamoyl)-4-(trifluoromethoxy)benzenesulfonamide] it is 4.28%. The same measure, in the same setting: with `N#CC12CC(NC(=O)NS(=O)(=O)c3ccc(OC(F)(F)F)cc3)(C1)C2` [Compound 11b, N-((3-cyanobicyclo [1.1.1]pentan-1-yl)carbamoyl)-4-(trifluoromethoxy)benzenesulfonamide] the figure was 7.47%. Take `O=C(NC12CC(F)(C1)C2)NS(=O)(=O)c1ccc(OC(F)(F)F)cc1` [Compound 11c, N-((3-fluorobicyclo [1.1.1]pentan-1-yl)carbamoyl)-4-(trifluoromethoxy)benzenesulfonamide]: the “Human sEH % Inhibition” value was 1.67%. As for `O=C(NC1C2CC3CC(C2)CC1C3)NS(=O)(=O)c1ccc(OC(F)(F)F)cc1` (stereo not shown) [Compound 12, N-((adamantan-2-yl)carbamoyl)-4-(trifluoromethoxy)benzenesulfonamide], the “Human sEH % Inhibition” value is reported as 34.53% and the “human sEH inhibitory activity (in words)” value was “none of them showed any activity”. Take `O=C(NS(=O)(=O)c1ccc(OC(F)(F)F)cc1)N1CCC(C(F)(F)F)CC1` [Compound 13, N-((4-(trifluoromethoxy)phenyl)sulfonyl)-4-(trifluoromethyl)piperidine-1-carboxamide]: the “Human sEH % Inhibition” value is listed as 2.75% and the “human sEH inhibitory activity (in words)” value is “none of them showed any activity”.

With `O=C(NC1CCCCC1)NS(=O)(=O)c1ccc(OC(F)(F)F)cc1` [Compound 14, N-(cyclohexylcarbamoyl)-4-(trifluoromethoxy)benzenesulfonamide], the “Human sEH % Inhibition” value is 32.26% and the “human sEH inhibitory activity (in words)” value is “none of them showed any activity”. As to `CC(C)(C)OC(=O)N1CCC(NC(=O)NS(=O)(=O)c2ccc(OC(F)(F)F)cc2)CC1` [Compound 16, tert-butyl 4-(3-((4-(trifluoromethoxy)phenyl)sulfonyl)ureido)piperidine-1-carboxylate], the “Human sEH % Inhibition” value came to 23.03% and the “human sEH inhibitory activity (in words)” value is on record as “none of them showed any activity”. Taken in the same sequence, the figures for `O=C(NC1CCNCC1)NS(=O)(=O)c1ccc(OC(F)(F)F)cc1` [Compound 17, N-(piperidin-4-ylcarbamoyl)-4-(trifluoromethoxy)benzenesulfonamide] were 32.02% and “none of them showed any activity”.

Still in this experiment, the particulars now being: dose-dependent assay; read-out: Human sEH Inhibition IC50.
For the compound `O=C(NC12CC3CC(CC(C3)C1)C2)NS(=O)(=O)c1ccccc1` [Compound 4a], the IC50 is 0.1 µM.
